Source: publication PMC6467875, “An experimentally validated approach to calculate the blood-brain barrier permeability of small molecules” (Scientific Reports, 2019)

Columns and labels:
bovine BMECs = tested on: bovine BMECs; set-up: method as in Shah et al. 33; details: transwell, ref Shah et al. 33; cited from earlier work
[1] = source not stated; cited from earlier work
MDCKII cells = tested on: MDCKII cells; set-up: method as in Summerfield et al. 32; details: transwell, ref Summerfield et al. 32; cited from earlier work
[2] = from experiment; ref Atkinson, Berg, 1988; cited from earlier work
red blood cells = tested on: red blood cells; set-up: method as in Brahm et al. 40; details: from rate constants km for transport into red blood cells, Papp = km/2; ref Brahm et al. 40; cited from earlier work
[3] = Transwell permeability assay with iPSC-derived hBMECs; format: in vitro ADME; details: human, stem-cell derived hBMECs, obtained as part of this work
Method: To validate results from MD simulations, permeabilities for selected molecules were determined using the transwell assay with human induced pluripotent stem cell (iPSC)-derived hBMECs. […] Briefly, hBMECs were sub-cultured onto polyester 12-well transwell inserts with a 0.4 µm pore size (Corning) coated with 1:1 collagen IV (100 µg mL^−1, Sigma) and fibronectin (50 µg mL^−1, Sigma) at a density of 1 × 10^6 cells mL^−1 and allowed to reach confluence for another two days. Permeability experiments were performed only if the transendothelial electrical resistance (TEER) was in excess of 1500 Ω cm^2. Prior to permeability experiments, cells were washed with transport buffer (0.12 M NaCl, 25 mM NaHCO3, 3 mM KCl, 2 mM MgSO4, 2 mM CaCl2, 0.4 mM K2HPO4, 1 mM 4-(2-hydroxyethyl)-1-piperazineethanesulfonic acid (HEPES), and 0.1% human platelet poor derived serum) and 100 µL of the molecule of interest in transport buffer was introduced into the apical well.
Experimentally, solute permeabilities are determined using a transwell assay from the concentrations in the apical (luminal, CL) and basolateral (abluminal, CA) compartments after time t using:10 P=VA⋅CA/(t⋅S⋅CL), where VA is the volume of the basolateral compartment (see Supporting Material for details).

[4] = not told; cited from earlier work

Question: Which results are given for `OCC(O)CO` [Glycerol]?
Answer: Papp (bovine BMECs): 9.5 ×10⁻⁶ cm/s; Dipole moment [1]: 2.56 D

Question: Which Papp (MDCKII cells) does the source give for `CCC1(C)CC(=O)NC1=O` (stereo not shown) [Ethosuximide] here?
Answer: The Papp was 9.7 ×10⁻⁶ cm/s.

Question: And the “Log P, octanol-water partition coefficient” value [2]?
Answer: The value was 0.38.

Question: Which Dipole moment [1] does the source give for `N` [Ammonia] here?
Answer: The Dipole moment was 1.47 D.

Question: Which results are given for `CC(C)O` [Isopropanol]?
Answer: Papp (red blood cells): 6500 ×10⁻⁶ cm/s; Dipole moment [1]: 1.58 D

Question: For `CCO` [Ethanol], which Papp (red blood cells) is on record?
Answer: The Papp was 2100 ×10⁻⁶ cm/s.

Question: And the Dipole moment [1]?
Answer: Its Dipole moment is 1.69 D.

Question: What does the source list for `Cn1c(=O)c2c(ncn2C)n(C)c1=O` [Caffeine]?
Answer: Papp A→B [3]: 21 ×10⁻⁶ cm/s; Dipole moment [1]: 3.65 D

Question: Which Papp [4] does the source give for `O=C=O` [Carbon -dioxide, Carbon dioxide] here?
Answer: The Papp was 1.6 ± 0.4 × 10^−1 cm/s.

Question: And the Dipole moment [1]?
Answer: The Dipole moment was 0 D.
